Experimental data published in patent publication US11850220B2 (Augusta University Research Institute, Inc., priority 2020, dated 2023).

Legend:
[1] = tested on: hot plate; assay: hot plate technique (central analgesic); format: in vivo; settings: for Potency: Relative to indomethacin at 120 min.
[2] = tested on: acetic acid-induced abdominal writhing; assay: acetic acid-induced abdominal writhing technique (peripheral analgesic); format: in vivo; settings: for Potency: Relative to indomethacin; for % Inhibition/protection / Writing reflex ± SEM: in vivo; for % Inhibition/protection: test concentration or dose not given here; for Writing reflex ± SEM: test concentration or dose not given here
[3] = tested on: carrageenan-induced paw edema; assay: carrageenan-induced paw edema technique (anti-inflammatory); format: in vivo; settings: for Observed (1/property): 1/(% inhibition of edema thickness at 3 h effect); for Observed (1/property): test concentration or dose not given here; for Potency (% Inhibition relative to indomethacin at 3 h effect): test concentration or dose not given here
Description: Anti-inflammatory properties of the ibuprofen-amino acid conjugate (5a-j) and ibuprofen-amino acid-4-aminophenol conjugates 7a-j were studied by the standard carrageenan-induced paw edema technique (Naumov, R. N. et al., Bioorg. Med. Chem. Lett. 2015, 25, 2314-2320; Tiwari, A. D. et al., Org. Biomol. Chem. 2014, 12, 7238-7249).

[4] = tested on: animal gastric mucosa; assay: ulcerogenic liability; format: in vivo; settings: in vivo
[5] = % inhibition of edema thickness at 3 h effect, Table 7
[6] = anti-inflammatory property (% inhibition of edema at 3 h), Table 8

| SMILES | % protection ([1]; After 30 min.) | Latency period ± SEM ([1]; After 30 min.) [s] | % protection ([1]; After 60 min.) | Latency period ± SEM ([1]; After 60 min.) [s] | % protection ([1]; After 90 min.) | Latency period ± SEM ([1]; After 90 min.) [s] | % protection ([1]; After 120 min.) | Latency period ± SEM ([1]; After 120 min.) [s] | Potency [1] | Potency [2] | % Inhibition/protection [2] [%] | Writing reflex ± SEM [2] | Observed (1/property) ([3]; Table 7) | % inhibition of edema ([3]; 1 h) [%] | Mean edema thickness ([3]; 1 h) [mm] | % inhibition of edema ([3]; 2 h) [%] | Mean edema thickness ([3]; 2 h) [mm] | % inhibition of edema ([3]; 3 h) [%] | Mean edema thickness ([3]; 3 h) [mm] | % inhibition of edema ([3]; 4 h) [%] | further results |
| --- | --- | --- | --- | --- | --- | --- | --- | --- | --- | --- | --- | --- | --- | --- | --- | --- | --- | --- | --- | --- | --- |
| CC(C)Cc1ccc(C(C)C(=O)NCCCC(=O)O)cc1 (stereo not drawn) [Compound 5d, 4-(2-(4-Isobutylphenyl)propanamido)butanoic acid] | (34.7) % | 3.26 ± 0.12 | (19.3) % | 2.66 ± 0.04 | (13.2) % | 2.49 ± 0.03 | (8.2) % | 2.37 ± 0.01 | 14 | 7 | 3.8 | 93.6 ± 2.6 | 0.01667 | 22 | 0.96 ± 0.06 | 28 | 1.09 ± 0.07 | 60 | 0.52 ± 0.04 | 13 | melting point: 78.3 °C; Mean edema thickness ([3]; 4 h): 1.09 ± 0.05 mm; % inhibition of edema ([3]; 24 h): 58%; Mean edema thickness ([3]; 24 h): 0.08 ± 0.02 mm; Observed property [3, 5]: 60%; Observed property [3, 6]: 60%; Potency (% Inhibition relative to indomethacin at 3 h effect) [3]: 75% |
| CC(C)Cc1ccc(C(C)C(=O)NCCC(=O)Nc2ccc(O)cc2)cc1 (stereo not drawn) [Compound 7c, N-(4-Hydroxyphenyl)-3-(2-(4-isobutylphenyl)propanamido)propanamide] | (58.3) % | 3.83 ± 0.03 | (53.4) % | 3.42 ± 0.12 | (52.7) % | 3.36 ± 0.15 | (52.1) % | 3.33 ± 0.11 | 92 | 115 | 63.0 | 36.0 ± 1.3 | 0.01493 | 35 | 0.80 ± 0.03 | 58 | 0.63 ± 0.03 | 67 | 0.43 ± 0.02 | 70 | melting point: 155.5 °C; Mean edema thickness ([3]; 4 h): 0.38 ± 0.01 mm; % inhibition of edema ([3]; 24 h): 0%; Mean edema thickness ([3]; 24 h): 0.19 ± 0.02 mm; Observed property [3, 5]: 67%; Observed property [3, 6]: 67%; Potency (% Inhibition relative to indomethacin at 3 h effect) [3]: 84% |
| CC(C)Cc1ccc(C(C)C(=O)N[C@@H](CCC(N)=O)C(=O)O)cc1 (stereo partly drawn) [Compound 5j, (2-(4-Isobutylphenyl)propanoyl)-L-glutamine] | (22.3) % | 2.96 ± 0.02 | (25.1) % | 2.79 ± 0.03 | (45.5) % | 3.20 ± 0.04 | (46.1) % | 3.20 ± 0.03 | 81 | 3 | 1.6 | 95.7 ± 2.4 | 0.01389 | 25 | 0.92 ± 0.05 | 45 | 0.83 ± 0.04 | 72 | 0.36 ± 0.02 | 8 | melting point: 67.4 °C; % Incidence of ulcer divided by 10 [4]: 0; Average of ulcer number [4]: 0; Average severity of ulcer [4]: 0; Number of animals with ulcer [4]: 0; Ulcer index [4]: 0; Mean edema thickness ([3]; 4 h): 1.15 ± 0.06 mm; % inhibition of edema ([3]; 24 h): 47%; Mean edema thickness ([3]; 24 h): 0.10 ± 0.03 mm; Observed property [3, 5]: 72%; Observed property [3, 6]: 72%; Potency (% Inhibition relative to indomethacin at 3 h effect) [3]: 90% |
| CSCC[C@H](NC(=O)C(C)c1ccc(CC(C)C)cc1)C(=O)Nc1ccc(O)cc1 (stereo partly drawn) [Compound 7i, (2S)-N-(4-Hydroxyphenyl)-2-(2-(4-isobutylphenyl)propanamido)-4-(methylthio)butanamide] | (86.4) % | 4.51 ± 0.07 | (90.1) % | 4.24 ± 0.05 | (97.7) % | 4.35 ± 0.02 | (121.5) % | 4.85 ± 0.04 | 215 | 128 | 70.4 | 28.8 ± 1.0 | 0.01786 | 34 | 0.81 ± 0.04 | 48 | 0.79 ± 0.04 | 56 | 0.57 ± 0.02 | 49 | melting point: 190.8 °C; Mean edema thickness ([3]; 4 h): 0.64 ± 0.03 mm; % inhibition of edema ([3]; 24 h): 5%; Mean edema thickness ([3]; 24 h): 0.18 ± 0.02 mm; Observed property [3, 5]: 56%; Observed property [3, 6]: 56%; Potency (% Inhibition relative to indomethacin at 3 h effect) [3]: 70% |
| CC(C)Cc1ccc(C(C)C(=O)NCCCC(=O)Nc2ccc(O)cc2)cc1 (stereo not drawn) [Compound 7d, N-(4-Hydroxyphenyl)-4-(2-(4-isobutylphenyl)propanamido)butanamide] | (49.2) % | 3.61 ± 0.05 | (27.8) % | 2.85 ± 0.04 | (15.0) % | 2.53 ± 0.02 | (12.3) % | 2.46 ± 0.09 | 22 | 77 | 42.1 | 56.3 ± 0.7 | 0.01515 | 13 | 1.07 ± 0.06 | 25 | 1.14 ± 0.04 | 66 | 0.44 ± 0.03 | 13 | melting point: 140.6 °C; Mean edema thickness ([3]; 4 h): 1.09 ± 0.04 mm; % inhibition of edema ([3]; 24 h): 53%; Mean edema thickness ([3]; 24 h): 0.09 ± 0.01 mm; Observed property [3, 5]: 66%; Observed property [3, 6]: 66%; Potency (% Inhibition relative to indomethacin at 3 h effect) [3]: 83% |
| CC(C)Cc1ccc(C(C)C(=O)NCC(=O)O)cc1 (stereo not drawn) [Compound 5a, (2-(4-Isobutylphenyl)propanoyl)glycine] | (15.3) % | 2.79 ± 0.03 | (28.3) % | 2.86 ± 0.04 | (29.1) % | 2.84 ± 0.02 | (29.7) % | 2.84 ± 0.05 | 52 | 83 | 45.6 | 52.9 ± 1.3 | 0.01389 | 53 | 0.58 ± 0.02 | 66 | 0.51 ± 0.04 | 72 | 0.37 ± 0.06 | 67 | % Incidence of ulcer divided by 10 [4]: 0; Average of ulcer number [4]: 0; Average severity of ulcer [4]: 0; Number of animals with ulcer [4]: 0; Ulcer index [4]: 0; Mean edema thickness ([3]; 4 h): 0.41 ± 0.04 mm; % inhibition of edema ([3]; 24 h): 68%; Mean edema thickness ([3]; 24 h): 0.06 ± 0.01 mm; Observed property [3, 5]: 72%; Observed property [3, 6]: 72%; Potency (% Inhibition relative to indomethacin at 3 h effect) [3]: 90% |
| CC(C)Cc1ccc(C(C)C(=O)N[C@@H](C)C(=O)Nc2ccc(O)cc2)cc1 (stereo partly drawn) [Compound 7b, (2S)-N-(4-Hydroxyphenyl)-2-(2-(4-isobutylphenyl)propanamido)propanamide] | (74.0) % | 4.21 ± 0.14 | (78.5) % | 3.98 ± 0.09 | (75.0) % | 3.85 ± 0.05 | (60.7) % | 3.52 ± 0.06 | 107 | 132 | 72.6 | 26.7 ± 1.1 | 0.01613 | 21 | 0.97 ± 0.05 | 25 | 1.13 ± 0.06 | 62 | 0.50 ± 0.02 | 44 | melting point: 193.7 °C; Mean edema thickness ([3]; 4 h): 0.70 ± 0.03 mm; % inhibition of edema ([3]; 24 h): 5%; Mean edema thickness ([3]; 24 h): 0.18 ± 0.02 mm; Observed property [3, 5]: 62%; Observed property [3, 6]: 62%; Potency (% Inhibition relative to indomethacin at 3 h effect) [3]: 78% |
